Test results taken from patent publication US10154958B1 (King Abdulaziz University, priority 2017, dated 2018).
Marks after values point to notes of the source that are not given here.

Experiments:
Gardnerella vaginalis = assay: Disc diffusion susceptibility of Gardnerella vaginalis isolates; assay type: cell-based; conditions: of the 20 isolates of Gardnerella vaginalis; reference disc 5 mcg/disc
Protocol: Twenty isolates of each of Gardnerella vaginalis and Candida albicans were collected from human vaginosis cases. […] The disc diffusion method was used. For Gardnerella vaginalis, the Mueller-Hinton agar supplemented with 5% human serum medium was used.
The discs were incubated aerobically for 48 hrs at 35° C., the diameter of the discs inhibition zones were measured in millimeter, and interpreted by using the chart provided by Hudzicki, American Society for Microbiology, www.asm.org.2013, incorporated herein by reference in its entirety.

Trichomonas vaginalis = assay: In vitro susceptibility of Trichomonas vaginalis isolates (flagellar motility); assay type: cell-based; conditions: 37° C.; for Mean % cells with motility after 48 hrs of aerobic contact: 500 cells/100 μL + 100 μL composition or metranidazole 25 μg/ml
Protocol: Fresh isolates of Trichomonas vaginalis were collected from 30-38 years old women. The procedure of vaginal smearing and reconstituting medium of the collected specimens were performed according to the procedure in Meingassner and Thumer, Antimicrobial agents and Chemotherapy, Vol 15, pp 254-257,1979, incorporated herein by reference in its entirety. Each isolate was adjusted to a viable count of 5,000 cells/ml, using a hemocytometer. A reconstituting diluent, Diamond's TYM supplemented with 10% horse serum, was used. The isolates were tested with the composition and a commonly used drug, metranidazole.
The number of cells in each well was 500 cells/100 μL of medium. […] Metranidazole was included as a reference at a concentration of 25 μg/ml. Metranidazole (100 μL) was also kept in contact with 500 cells/100 μL of the 20 isolates of Trichomonas vaginalis in the presence of oxygen for 48 hours at 37° C. Control triplicate wells were included in which the Trichomonas vaginalis cells of each of the 20 isolates were put in contact with equal volume of Diamond's TYM supplemented with 10% horse serum. The motility of flagella of the cells was observed after 48 hrs under an inverted-phase contrast microscope. The percentage of cells losing flagellar motility was determined.

Cc1ncc([N+](=O)[O-])n1CCO [Metranidazole, metranidazole]
number of isolates resistant to the reference disc (Gardnerella vaginalis): one | Mean % cells with motility after 48 hrs of aerobic contact (Trichomonas vaginalis; isolate 1): 4.0% | Mean % cells with motility after 48 hrs of aerobic contact (Trichomonas vaginalis; isolate 2): 0.0% | Mean % cells with motility after 48 hrs of aerobic contact (Trichomonas vaginalis; isolate 3): 1.5% | Mean % cells with motility after 48 hrs of aerobic contact (Trichomonas vaginalis; isolate 4): 5.4% | Mean % cells with motility after 48 hrs of aerobic contact (Trichomonas vaginalis; isolate 5): 7.4% | Mean % cells with motility after 48 hrs of aerobic contact (Trichomonas vaginalis; isolate 6): 0.0% | Mean % cells with motility after 48 hrs of aerobic contact (Trichomonas vaginalis; isolate 7): 9.3% | Mean % cells with motility after 48 hrs of aerobic contact (Trichomonas vaginalis; isolate 8): 5.6% | Mean % cells with motility after 48 hrs of aerobic contact (Trichomonas vaginalis; isolate 9): 8.4% | Mean % cells with motility after 48 hrs of aerobic contact (Trichomonas vaginalis; isolate 10): 10.4% | Mean % cells with motility after 48 hrs of aerobic contact (Trichomonas vaginalis; isolate 11): 0.0% | Mean % cells with motility after 48 hrs of aerobic contact (Trichomonas vaginalis; isolate 12): 4.2% | Mean % cells with motility after 48 hrs of aerobic contact (Trichomonas vaginalis; isolate 13): 0.0% | Mean % cells with motility after 48 hrs of aerobic contact (Trichomonas vaginalis; isolate 14): 6.7% | Mean % cells with motility after 48 hrs of aerobic contact (Trichomonas vaginalis; isolate 15): 8.5% | Mean % cells with motility after 48 hrs of aerobic contact (Trichomonas vaginalis; isolate 16): 11.4% | Mean % cells with motility after 48 hrs of aerobic contact (Trichomonas vaginalis; isolate 17): 7.4% | Mean % cells with motility after 48 hrs of aerobic contact (Trichomonas vaginalis; isolate 18): 8.2% | Mean % cells with motility after 48 hrs of aerobic contact (Trichomonas vaginalis; isolate 19): 9.7% | Mean % cells with motility after 48 hrs of aerobic contact (Trichomonas vaginalis; isolate 20): 1.2% | Mean % cells with motility after 48 hrs of aerobic contact, Mean of Means (Trichomonas vaginalis; mean of means of the 20 isolates, composition or metranidazole 25 μg/ml): 5.5^a %
